Laboratory results reported in patent US8895579B2, “Heterotricyclic AMPA receptor antagonists for treatment of epilepsy, pain, and other neurological disorders and diseases” (Northwestern University, priority 2010, dated 2014).

Experiments:
GluA4 = target: T1, GluA4 (Rattus norvegicus, UniProt P19493); assay: [3H]-AMPA radioligand binding, membranes of HEK293-T/17 cells expressing GluA4; settings: 100 μM
T1 construct: expressed in transfected cells; host or cells: HEK293-T/17 (CRL-11268)
Method: Radioligand binding. HEK293-T/17 cells were transfected with 5 μg of iGluR cDNA in 100 mm^2 culture dishes. Two days post transfection, the plates were washed twice with ice-cold Dulbecco's phosphate-buffered saline (DPBS) and then incubated with 50 mM Tris (pH 7.4) and 1 mM EDTA for three minutes on ice. Cells were collected and centrifuged for five minutes at 800 g at room temperature. The cell pellet was homogenized in 50 mM Tris (pH 7.4) containing 320 mM sucrose (homogenization buffer, HB) on ice using a glass dounce homogenizer and centrifuged at 4° C. for 10 minutes at 800 g. The supernatant, containing the membrane fragments, was saved and the remaining pellet containing nuclei and unbroken cells was resuspended in HB. This homogenization process was repeated two more times and after collection of the final resulting supernatant, the remaining pellet was discarded. The collected supernatants were centrifuged at 4° C. for 20 minutes at 20000 g and the resulting supernatant was discarded leaving a membrane-containing pellet. The pellets were resuspended in freshly prepared binding buffer containing (in mM) 50 Tris (pH 7.2), 2.5 CaCl2, 10% glycerol and 100 KSCN (for AMPA receptors) or exclusively 50 Tris (pH 7.4) (for kainate receptors). Membrane protein (50-100 μg) was combined with radiolabeled ligand (10 nM [^3H]-KA or 20 nM [^3H]-AMPA for kainate receptor and AMPA receptor binding, respectively), alone or with 100 μM of IKM-159, and then incubated for 1 h at 4° C. Non-specific binding was determined as the amount of radioligand bound in the presence of a saturating concentration of glutamate (1 mM). Total binding was determined as the amount of radioligand bound in the absence of any competing ligands minus the non-specific binding. […] Data were presented as a percentage of the total binding. All experimental conditions were performed in duplicate in each assay and then averaged for each trial.

[1] = system: primary hippocampal neurons; assay: Spontaneous action potential firing, current clamp, cultured hippocampal neurons; type: cell-based; settings: 20 μM
Method: Experiments involving primary hippocampal neurons were carried out as described previously (Vivithanaporn et al., 2007). Dissociated neurons were cultured from E18 prenatal hippocampi and were used for analysis from between 17 and 28 days in vitro. The extracellular solution was the same as used for recombinant receptor analysis, while the internal solution for voltage clamp recordings contained (in mM) 95 CsF, 25 CsCl, 10 Cs-HEPES, 10 EGTA, 2 NaCl, 2 Mg-ATP, 10 QX-314, 5 TEA. and 5 4-AP (pH 7.3) and the internal solution for current clamp recordings contained (in mM) 120 KMeSO4, 5 KCl, 5 NaCl, 1 MgCl2, 11 Na-HEPES, 10 phosphocreatine, 4 Na-ATP, and 0.3 Na-GTP (pH 7.0). Borosilicate patch electrodes were pulled and fire polished to 3-5 MΩ resistance. Both whole cell current clamp and voltage clamp recordings were performed using an Axopatch 200B amplifier (MDS, Sunnyvale, Calif.) and filtered at 20 kHz. Gigaohm seals were established in voltage clamp mode and, after membrane rupture, the recordings were carried out either in voltage clamp (clamped at Vm=−70 mV) with a […] series resistance, which was compensated to ˜60%, or in current clamp mode ([…]) with the bridge balance was corrected and pipette resistance neutralized. In vitro status epilepticus (SE) was induced as described previously (Deshpande et al., 2007; Pal et al., 1999) and action potentials were recorded in current clamp mode. Briefly for in vitro SE, magnesium-containing external solution was exchanged for external solution without magnesium and supplemented with 2 μM glycine. This solution exchange produced a period of rapid depolarization and increased AP firing, followed by a period of channel inactivation and reduced AP firing. After channel inactivation, neurons characteristically would hyperpolarize to hold at a membrane voltage (Vm) which was depolarized relative to control Vm, with an increase in AP firing frequency. […] External solutions were bath-applied at a flow rate of 1.5-2 ml/minute. After recording a basal control period, IKM compounds were applied for five minutes (10 minutes for in vitro SE experiments) and changes in excitatory post-synaptic current (EPSC) charge transfer or action potential (AP) frequency were analyzed during the last two minutes of IKM application.
Effects of IKM-159 on neuronal excitability. […] To determine if altered neuronal excitability could contribute to this behavioral phenotype, we examined the effect of IKM-86 and IKM-159 on action potential firing in cultured hippocampal neurons. Spontaneous action potentials were recorded in current-clamp mode before, during and after application of 20 μM IKM-86 and IKM-159. […]

GluK1-2b = target: T2, GluK1-2b (Rattus norvegicus, UniProt P22756); assay: [3H]-KA radioligand binding, membranes of HEK293-T/17 cells expressing GluK1-2b; settings: 10 nM [3H]-KA, 1 h at 4° C., read-out: [3H]KA bound as percent of total (specific) binding in absence of competing ligand
T2 construct: myc; expressed in transfected cells; host or cells: HEK293-T/17 (CRL-11268)
Method: Radioligand binding. HEK293-T/17 cells were transfected with 5 μg of iGluR cDNA in 100 mm^2 culture dishes. Two days post transfection, the plates were washed twice with ice-cold Dulbecco's phosphate-buffered saline (DPBS) and then incubated with 50 mM Tris (pH 7.4) and 1 mM EDTA for three minutes on ice. Cells were collected and centrifuged for five minutes at 800 g at room temperature. The cell pellet was homogenized in 50 mM Tris (pH 7.4) containing 320 mM sucrose (homogenization buffer, HB) on ice using a glass dounce homogenizer and centrifuged at 4° C. for 10 minutes at 800 g. The supernatant, containing the membrane fragments, was saved and the remaining pellet containing nuclei and unbroken cells was resuspended in HB. This homogenization process was repeated two more times and after collection of the final resulting supernatant, the remaining pellet was discarded. The collected supernatants were centrifuged at 4° C. for 20 minutes at 20000 g and the resulting supernatant was discarded leaving a membrane-containing pellet. […] Non-specific binding was determined as the amount of radioligand bound in the presence of a saturating concentration of glutamate (1 mM). Total binding was determined as the amount of radioligand bound in the absence of any competing ligands minus the non-specific binding. […]

T1 sequence (P19493 21-902 isoform P19493-2 limits assumed): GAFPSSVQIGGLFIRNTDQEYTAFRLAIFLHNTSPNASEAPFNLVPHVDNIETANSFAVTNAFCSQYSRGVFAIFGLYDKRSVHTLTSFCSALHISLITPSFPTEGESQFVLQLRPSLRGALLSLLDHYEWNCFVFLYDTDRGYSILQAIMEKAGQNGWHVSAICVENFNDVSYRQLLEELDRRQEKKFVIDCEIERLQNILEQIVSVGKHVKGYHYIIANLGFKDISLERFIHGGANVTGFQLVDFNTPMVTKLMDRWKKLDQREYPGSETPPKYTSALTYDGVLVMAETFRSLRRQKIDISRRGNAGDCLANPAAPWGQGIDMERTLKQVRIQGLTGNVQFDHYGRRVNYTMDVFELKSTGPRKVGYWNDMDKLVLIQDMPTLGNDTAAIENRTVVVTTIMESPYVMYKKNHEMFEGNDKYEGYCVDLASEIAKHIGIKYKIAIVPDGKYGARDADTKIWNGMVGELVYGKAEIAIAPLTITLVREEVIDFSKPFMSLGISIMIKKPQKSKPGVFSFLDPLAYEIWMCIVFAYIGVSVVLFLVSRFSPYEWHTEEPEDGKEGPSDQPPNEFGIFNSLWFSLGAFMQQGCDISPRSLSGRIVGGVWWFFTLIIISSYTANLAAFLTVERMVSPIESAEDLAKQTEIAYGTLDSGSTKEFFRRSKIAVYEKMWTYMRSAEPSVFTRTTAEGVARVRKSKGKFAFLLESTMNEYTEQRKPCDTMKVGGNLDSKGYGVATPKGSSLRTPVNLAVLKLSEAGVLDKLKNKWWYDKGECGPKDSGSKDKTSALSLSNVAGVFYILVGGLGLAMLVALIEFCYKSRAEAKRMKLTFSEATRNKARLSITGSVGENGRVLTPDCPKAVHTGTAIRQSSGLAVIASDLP
T2 sequence (P22756 31-905 isoform P22756-2 limits assumed): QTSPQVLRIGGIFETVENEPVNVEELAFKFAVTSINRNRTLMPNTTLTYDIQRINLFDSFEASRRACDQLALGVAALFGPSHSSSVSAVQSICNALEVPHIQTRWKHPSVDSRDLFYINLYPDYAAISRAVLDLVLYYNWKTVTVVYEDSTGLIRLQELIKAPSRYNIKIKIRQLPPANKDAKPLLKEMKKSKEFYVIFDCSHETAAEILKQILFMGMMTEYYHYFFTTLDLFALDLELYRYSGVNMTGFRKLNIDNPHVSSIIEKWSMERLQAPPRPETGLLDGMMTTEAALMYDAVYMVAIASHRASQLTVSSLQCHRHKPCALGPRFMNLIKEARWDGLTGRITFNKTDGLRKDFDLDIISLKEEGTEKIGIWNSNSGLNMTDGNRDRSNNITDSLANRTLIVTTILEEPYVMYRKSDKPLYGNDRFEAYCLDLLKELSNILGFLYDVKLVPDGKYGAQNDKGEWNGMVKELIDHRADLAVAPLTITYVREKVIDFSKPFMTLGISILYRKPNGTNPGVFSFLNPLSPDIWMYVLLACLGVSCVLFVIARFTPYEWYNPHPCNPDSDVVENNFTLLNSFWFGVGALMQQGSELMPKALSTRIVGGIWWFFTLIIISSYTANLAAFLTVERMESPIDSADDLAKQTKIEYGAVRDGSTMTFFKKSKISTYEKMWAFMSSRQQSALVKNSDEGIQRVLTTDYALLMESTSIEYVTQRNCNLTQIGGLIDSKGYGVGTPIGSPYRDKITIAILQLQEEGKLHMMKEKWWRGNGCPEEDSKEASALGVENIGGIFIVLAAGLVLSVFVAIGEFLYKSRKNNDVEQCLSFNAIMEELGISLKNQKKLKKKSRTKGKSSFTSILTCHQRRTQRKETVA

## O=C(O)C[C@@]12O[C@H]3C=CCN[C@H]3C1CN[C@H]2C(=O)O (stereo partly drawn) [IKM-159]
GluA4; 20 nM [3H]-AMPA, 1 h at 4° C.
  [3H]AMPA bound as percent of total (specific) binding in absence of competing ligand: 90±6%
GluA4; 1 h pre-incubation prior to addition of the radioligand
  bound radioligand ([3H]-AMPA): 100%
GluA4; 2 h incubation with [3H]-AMPA
  bound radioligand ([3H]-AMPA): 113%
[1]
  persistence of reduction in action potential firing frequency after removal of compound: prolonged
[1]; basal (spontaneous) firing
  action potential firing frequency in presence of compound: 0.5±0.04 Hz
GluK1-2b
  activity at 100 µM: 105 ± 5%
